# No end group written: not given here.
# Columns and labels:
# hα9α10[L7H] nAChR = hα9α10[L7H] nAChR (Homo sapiens, UniProt Q9GZZ6+Q9UGM1, L31H); assay: cell-based; type: cell-based
# [1] = target: the molecule itself; assay: mass spectrometry before and after reduction and alkylation
# hα9α10[L7H] nAChR, sequence (Q9UGM1 26-479 limits assumed, stated change not applied): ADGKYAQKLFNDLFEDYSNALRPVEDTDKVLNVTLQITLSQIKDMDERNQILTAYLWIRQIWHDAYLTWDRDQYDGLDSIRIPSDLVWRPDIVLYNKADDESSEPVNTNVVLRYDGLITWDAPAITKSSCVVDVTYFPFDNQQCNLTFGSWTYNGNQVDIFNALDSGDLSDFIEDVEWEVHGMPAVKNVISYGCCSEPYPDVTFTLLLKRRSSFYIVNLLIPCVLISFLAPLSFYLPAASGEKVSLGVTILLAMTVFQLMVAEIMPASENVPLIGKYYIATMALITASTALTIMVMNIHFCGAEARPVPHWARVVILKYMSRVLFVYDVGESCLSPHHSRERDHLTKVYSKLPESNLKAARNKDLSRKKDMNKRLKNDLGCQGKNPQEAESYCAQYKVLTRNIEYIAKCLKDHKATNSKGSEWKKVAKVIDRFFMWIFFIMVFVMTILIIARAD
# hα9α10[L7H] nAChR, sequence (Q9GZZ6 25-450 L31H limits assumed, stated change not applied): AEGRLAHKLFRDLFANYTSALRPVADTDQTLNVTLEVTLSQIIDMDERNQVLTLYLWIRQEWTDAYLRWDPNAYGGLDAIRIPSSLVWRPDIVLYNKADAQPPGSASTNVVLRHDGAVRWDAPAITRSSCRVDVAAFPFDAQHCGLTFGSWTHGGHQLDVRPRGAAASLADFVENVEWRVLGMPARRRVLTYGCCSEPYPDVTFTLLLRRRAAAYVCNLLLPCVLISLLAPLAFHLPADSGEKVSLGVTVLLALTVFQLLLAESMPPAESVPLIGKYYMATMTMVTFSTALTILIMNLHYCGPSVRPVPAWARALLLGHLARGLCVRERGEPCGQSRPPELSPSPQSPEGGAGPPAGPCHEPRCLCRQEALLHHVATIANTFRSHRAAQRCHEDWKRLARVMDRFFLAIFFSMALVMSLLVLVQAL
Molecule,effect of α10 L7H mutation on inhibitory activity (in words) (hα9α10[L7H] nAChR),stoichiometry N [1]
Vc1.1 [reference compound],not affected by this mutation,
DVHRPCQSVRPGRVWGKCCLTRLCSTMCCARADCTCVYHTWRGHGCSCVM (ends and bridges not checked; cysteine pairing not given here) [αD-conotoxin GeXXA],,2

# Reference: article PMC4585798 (Scientific Reports, 2015)
